# Columns and labels:
# [1] = system: adult subjects with treatment-resistant depression (TRD); experiment: Brief Psychiatric Rating Scale (BPRS) total score, same clinical study; details: 0.40 mg/kg
# [2] = system: adult subjects with treatment-resistant depression (TRD); experiment: Clinician-Assessed Dissociative Symptom Scale (CADSS) total score, same clinical study
# [3] = system: patients with major depressive disorders; details: cited from earlier work
# [4] = 0.20 mg/kg, Day 1 (4 Hour), baseline Day 1
# [5] = 0.20 mg/kg, Day 1 (40 Min), baseline Day 1
# [6] = 0.20 mg/kg, Day 2, baseline Day 1
# [7] = 0.20 mg/kg, Day 4 (4 Hour), baseline Day 4
# [8] = 0.20 mg/kg, Day 4 (40 Min), baseline Day 4
# [9] = 0.20 mg/kg, Day 5, baseline Day 4
# [10] = 0.40 mg/kg, Day 1 (4 Hour), baseline Day 1
# [11] = 0.40 mg/kg, Day 1 (40 Min), baseline Day 1
# [12] = 0.40 mg/kg, Day 2, baseline Day 1
# [13] = 0.40 mg/kg, Day 4 (4 Hour), baseline Day 4
# [14] = 0.40 mg/kg, Day 4 (40 Min), baseline Day 4
# [15] = 0.40 mg/kg, Day 5, baseline Day 4
smiles,measurement,setting,value
"CN[C@]1(c2ccccc2Cl)CCCCC1=O.Cl [Esketamine, (S)-2-(2-chlorophenyl)-2-(methylamino)cyclohexanone hydrochloride]","BPRS total score, Mean (SE)",[1]; Day 1 (4 Hour),0.00 (0.000)
same,"BPRS total score, Mean (SE)",[1]; Day 1 (15 Min.),1.91 (0.625)
same,"BPRS total score, Mean (SE)",[1]; Day 1 (30 Min.),3.10 (0.960)
same,"BPRS total score, Mean (SE)",[1]; Day 1 (40 Min.),4.33 (1.323)
same,"BPRS total score, Mean (SE)",[1]; Day 1 (Predose),0.09 (0.091)
same,"BPRS total score, Mean (SE)",[1]; Day 2,0.00 (0.000)
same,"BPRS total score, Mean (SE)",[1]; Day 4 (2 Hour),0.43 (0.335)
same,"BPRS total score, Mean (SE)",[1]; Day 4 (4 Hour),0.29 (0.286)
same,"BPRS total score, Mean (SE)",[1]; Day 4 (15 Min.),1.90 (0.668)
same,"BPRS total score, Mean (SE)",[1]; Day 4 (30 Min.),3.32 (1.192)
same,"BPRS total score, Mean (SE)",[1]; Day 4 (40 Min.),3.16 (1.248)
same,"BPRS total score, Mean (SE)",[1]; Day 4 (Predose),0.05 (0.048)
same,"BPRS total score, Mean (SE)",[1]; Day 5,0.00 (0.000)
same,"CADSS total score, Mean (SD)","[2]; 0.20 mg/kg, Day 1 (4 Hour)",0.00 (0.000)
same,"CADSS total score, Median","[2]; 0.20 mg/kg, Day 1 (4 Hour)",0.00
same,"CADSS total score change from baseline, Mean (SD)",[2]; [4],0.00 (0.000)
same,"CADSS total score change from baseline, Median",[2]; [4],0.00
same,"CADSS total score, Mean (SD)","[2]; 0.20 mg/kg, Day 1 (40 Min)",15.56 (24.653)
same,"CADSS total score, Median","[2]; 0.20 mg/kg, Day 1 (40 Min)",4.00
same,"CADSS total score change from baseline, Mean (SD)",[2]; [5],15.56 (24.653)
same,"CADSS total score change from baseline, Median",[2]; [5],4.00
same,"CADSS total score, Mean (SD)","[2]; 0.20 mg/kg, Day 1 (Predose)",0.00 (0.000)
same,"CADSS total score, Median","[2]; 0.20 mg/kg, Day 1 (Predose)",0.00
same,"CADSS total score, Mean (SD)","[2]; 0.20 mg/kg, Day 2",0.22 (0.667)
same,"CADSS total score, Median","[2]; 0.20 mg/kg, Day 2",0.00
same,"CADSS total score change from baseline, Mean (SD)",[2]; [6],0.22 (0.667)
same,"CADSS total score change from baseline, Median",[2]; [6],0.00
same,"CADSS total score, Mean (SD)","[2]; 0.20 mg/kg, Day 4 (4 Hour)",0.22 (0.667)
same,"CADSS total score, Median","[2]; 0.20 mg/kg, Day 4 (4 Hour)",0.00
same,"CADSS total score change from baseline, Mean (SD)",[2]; [7],0.22 (0.667)
same,"CADSS total score change from baseline, Median",[2]; [7],0.00
same,"CADSS total score, Mean (SD)","[2]; 0.20 mg/kg, Day 4 (40 Min)",6.38 (7.963)
same,"CADSS total score, Median","[2]; 0.20 mg/kg, Day 4 (40 Min)",4.00
same,"CADSS total score change from baseline, Mean (SD)",[2]; [8],6.38 (7.963)
same,"CADSS total score change from baseline, Median",[2]; [8],4.00
same,"CADSS total score, Mean (SD)","[2]; 0.20 mg/kg, Day 4 (Predose)",0.00 (0.000)
same,"CADSS total score, Median","[2]; 0.20 mg/kg, Day 4 (Predose)",0.00
same,"CADSS total score, Mean (SD)","[2]; 0.20 mg/kg, Day 5",0.11 (0.333)
same,"CADSS total score, Median","[2]; 0.20 mg/kg, Day 5",0.00
same,"CADSS total score change from baseline, Mean (SD)",[2]; [9],0.11 (0.333)
same,"CADSS total score change from baseline, Median",[2]; [9],0.00
same,"CADSS total score, Mean (SD)","[2]; 0.40 mg/kg, Day 1 (4 Hour)",0.36 (1.206)
same,"CADSS total score, Median","[2]; 0.40 mg/kg, Day 1 (4 Hour)",0.00
same,"CADSS total score change from baseline, Mean (SD)",[2]; [10],−0.55 (1.036)
same,"CADSS total score change from baseline, Median",[2]; [10],0.00
same,"CADSS total score, Mean (SD)","[2]; 0.40 mg/kg, Day 1 (40 Min)",22.00 (9.192)
same,"CADSS total score, Median","[2]; 0.40 mg/kg, Day 1 (40 Min)",23.00
same,"CADSS total score change from baseline, Mean (SD)",[2]; [11],21.56 (9.645)
same,"CADSS total score change from baseline, Median",[2]; [11],23.00
same,"CADSS total score, Mean (SD)","[2]; 0.40 mg/kg, Day 1 (Predose)",0.91 (1.921)
same,"CADSS total score, Median","[2]; 0.40 mg/kg, Day 1 (Predose)",0.00
same,"CADSS total score, Mean (SD)","[2]; 0.40 mg/kg, Day 2",0.73 (1.849)
same,"CADSS total score, Median","[2]; 0.40 mg/kg, Day 2",0.00
same,"CADSS total score change from baseline, Mean (SD)",[2]; [12],−0.18 (1.168)
same,"CADSS total score change from baseline, Median",[2]; [12],0.00
same,"CADSS total score, Mean (SD)","[2]; 0.40 mg/kg, Day 4 (4 Hour)",3.21 (8.929)
same,"CADSS total score, Median","[2]; 0.40 mg/kg, Day 4 (4 Hour)",0.00
same,"CADSS total score change from baseline, Mean (SD)",[2]; [13],3.16 (8.808)
same,"CADSS total score change from baseline, Median",[2]; [13],0.00
same,"CADSS total score, Mean (SD)","[2]; 0.40 mg/kg, Day 4 (40 Min)",15.67 (13.932)
same,"CADSS total score, Median","[2]; 0.40 mg/kg, Day 4 (40 Min)",10.00
same,"CADSS total score change from baseline, Mean (SD)",[2]; [14],15.67 (13.932)
same,"CADSS total score change from baseline, Median",[2]; [14],10.00
same,"CADSS total score, Mean (SD)","[2]; 0.40 mg/kg, Day 4 (Predose)",0.19 (0.680)
same,"CADSS total score, Median","[2]; 0.40 mg/kg, Day 4 (Predose)",0.00
same,"CADSS total score, Mean (SD)","[2]; 0.40 mg/kg, Day 5",0.25 (0.550)
same,"CADSS total score, Median","[2]; 0.40 mg/kg, Day 5",0.00
same,"CADSS total score change from baseline, Mean (SD)",[2]; [15],0.05 (0.759)
same,"CADSS total score change from baseline, Median",[2]; [15],0.00
same,Time at which maximum mean overall BPRS and CADSS scores (CNS side effects) were observed,[2]; corresponding to the end of the infusion,40 min
same,Time point at which BPRS and CADSS scores returned back to baseline values,"[2]; postdose, after the start of infusion",4 h
CNC1(c2ccccc2Cl)CCCCC1=O (racemic) [ketamine],Onset of rapid antidepressant effect,[3],within two hours
